Laboratory results as given in US5696239A (The Dow Chemical Company, priority 1995, dated 1997).

How the values were obtained:
[1] = Complex study: percent yttrium complex after addition of excess metal (lability); assay type: physicochemical
Description: (§1) A disposable 10 ml plastic (Biorad) column was filled with 1 to 2 ml of water-swelled Sephadex™ C-25 cation exchange resin. The water was pressure eluted to the top of the resin. Fifteen μl of the complex (or more if counts were low) were added to the top of the resin. This was followed by 2 ml of 4:1 (V:V) isotonic saline:conc. ammonium hydroxide solution as an eluent which was allowed to drip into a counting tube. This was also pressure eluted to the top of the resin. An additional 2 ml of the eluent were added and the column pressure eluted to remove all liquid. The dried resin was then placed in a third counting tube and the three tubes counted on a NaI well counter using a Canberra multichannel analyzer linked to a computer. The percent complex was determined by dividing the number of counts in the two elutions by the total counts in the elutions plus the column, all times 100. By this method, uncomplexed yttrium was retained on the column.
The 1:1 complex of yttrium with 1-(p-aminobenzyl)diethylenetriaminepentaacetic acid (ABDTPA), a well known bifunctional chelant used in the literature, and with the ligand of Example 2 (Now Ex. XVI) and Example 12 (now Ex. XVII) were prepared using the techniques described earlier. Several 100 microliter aliquots were then withdrawn into separate centrifuge tubes. Excess metal was added such that the total volume change is minimized and the time noted. One-half hour after metal addition, the percent complex was determined by the Sephadex™ C-25 method and this was compared to the original amount of complex. The percent complex versus added metal gives an indication as to the lability of the ligand-metal complex. Results are given below and are compared to the EDTA-yttrium complex.

[2] = Challenge of antibody-complex conjugates with excess DTPA (inertness); assay type: physicochemical; conditions: 1000 fold molar excess DTPA, pH 7.4, one hour; CC-46 conjugate of Y-90 complex
Description: The purified antibody-complexes were added to HEPES buffer (N-2-hydroxyethylpiperazine-N'-2-ethanesulfonic acid) at pH 7.4 and treated with an appropriate amount of 0.1M DTPA solution (pH 7.4) to ensure a 1000 fold molar excess of DTPA over complex attached to antibody. After one hour an aliquot was removed and the antibody-complex conjugates were separated from low molecular weight substances using gel-filtration.

[3] = complexes with Sc-46, Y-91, La-140 and Sm-153; chelant to metal 5:1; cited from earlier work
[4] = In vivo biodistribution of chelates in rats (% dose in organs); conditions: Sm complex, rat, 2 hours after i.v. injection
[5] = Percent complex determination, yttrium complexes (Sephadex C-25 cation exchange); assay type: physicochemical
Description: Complexes were made by preparing a 0.0003M yttrium solution in water. (YCl3.6H2 O, 303.26 g/mole; Y(OAc)3, 12.1% H2 O). Radioactive YCl3 (Oakridge National Laboratories) was added to give the desired number of counts. Ten μl of ligand solution (at 0.03M) were added to 990 μl of the Y solution, giving a ligand-to-metal ratio of 1:1. (Ten times the amount of ligand solution was used for a 10:1 ligand to metal ratio.) The pH was then adjusted to 7.4 using microliter quantities of hydrochloric acid or sodium hydroxide. The solution was then tested for the amount of complexed yttrium using the cation exchange method given below.
as §1

[6] = Percent complex determination, samarium complexes (Sephadex C-25 cation exchange); assay type: physicochemical; conditions: samarium
Description: as §1, with “100.” for “100. By this method, uncomplexed yttrium was retained on the column.”
Percent complex determination was made in the same manner as for the yttrium complex.

[7] = metal/ligand molar ratio 250, one-half hour after metal addition
[8] = metal/ligand molar ratio 500, one-half hour after metal addition
[9] = ligand/metal about 300:1 (Examples D and E)
[10] = ligand/metal ratio about 1:1 (* footnote)

## Nc1ccc(CC(CN(CCN(CC(=O)O)CC(=O)O)CC(=O)O)N(CC(=O)O)CC(=O)O)cc1 (stereo not drawn) [ABDTPA, 1-(p-aminobenzyl)diethylenetriaminepentaacetic acid]
[1]; metal/ligand molar ratio 10, one-half hour after metal addition
  % Complex: 95%
[1]; [7]
  % Complex: 87%
[1]; [8]
  % Complex: 70%
[2]
  yttrium lost from antibody-complex conjugate: over 98%

## O=C(O)CN(CCN(CC(=O)O)CC(=O)O)CC(=O)O [EDTA, ethylenediaminetetraacetic acid]
[1]; [7]
  % Complex: 48%
[1]; [8]
  % Complex: 16%
[3]
  organ distribution of radioactivity: high concentrations of radioactivity were observed in the liver, spleen, kidney, lung and bone
[4]; ligand/metal 5:1
  % Injected Dose in Liver: 8.4%
[4]; [9]
  % Injected Dose in Liver: 4.4%

## O=C(O)CN(CC(=O)O)CC(=O)O [NTA, nitrilotri-acetic acid, reference compound]
[3]
  organ distribution of radioactivity: high concentrations of radioactivity were observed in the liver, spleen, kidney, lung and bone
[4]; [9]
  % Injected Dose in Liver: 8.6%

## Nc1cc(CN(CCN(CC(=O)O)CC(=O)O)CC(=O)O)c(O)c(CN(CCN(CC(=O)O)CC(=O)O)CC(=O)O)c1 [Example 12]
[5]; ligand/metal 10:1, pH 7.4
  % Complex (10:1), Y: 99%
[5]; [10]
  % Complex, Y: 98%
[6]; ligand/metal 10:1
  % Complex (10:1), Sm: 98%
[6]; [10]
  % Complex, Sm: 98%
[1]; [7]
  % Complex: 90%
[1]; [8]
  % Complex: 79%
[2]
  yttrium lost from antibody-complex conjugate: approximately 39%
